Source: ChEMBL document CHEMBL5244251, “Recent researches for dual Aurora target inhibitors in antitumor field” (Eur J Med Chem, 2020)

Columns and labels:
[1] = test system: A-375; experiment: Antitumor activity against human A-375 cells xenografted in mouse assessed as tumor growth inhibition; type: functional
[2] = Antitumor activity against human Fuji cells xenografted in mouse assessed as reduction in tumor volume; type: functional; parameters: scale not given: the % may be the effect or the level left
[3] = Antitumor activity against human Fuji cells xenografted in mouse assessed as reduction in tumor weight; type: functional; parameters: scale not given: the % may be the effect or the level left
[4] = Inhibition of Xenopus laevis Aurora kinase B
[5] = target: T1, Aurora kinase C (Homo sapiens, UniProt Q9UQB9); experiment: Inhibition of human Aurora C
T1 sequence (Q9UQB9 whole entry): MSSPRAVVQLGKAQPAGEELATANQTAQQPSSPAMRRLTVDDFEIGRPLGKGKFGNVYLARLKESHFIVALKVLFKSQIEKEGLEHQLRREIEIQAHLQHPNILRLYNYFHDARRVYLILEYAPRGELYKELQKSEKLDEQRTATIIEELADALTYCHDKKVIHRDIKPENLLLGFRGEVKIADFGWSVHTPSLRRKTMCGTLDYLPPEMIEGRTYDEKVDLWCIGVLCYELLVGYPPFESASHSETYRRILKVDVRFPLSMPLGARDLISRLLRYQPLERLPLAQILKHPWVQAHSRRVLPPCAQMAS

For `Nc1nc(Nc2ccc(S(N)(=O)=O)cc2)nn1C(=O)c1c(F)cccc1F` [JNJ-7706621], which TGI [1] is on record?
Its TGI is 95%.

With `CN(C)S(=O)(=O)c1ccc2c(c1)/C(=C/c1cc3c([nH]1)CCCC3)C(=O)N2` as the compound, how does the Activity [2] read?
Its Activity is 16%.

And the Activity [3]?
The Activity was 13%.

With `CCNC(=O)C#Cc1ccc2c(c1)NC(=O)/C2=C(\Nc1ccc(CN(C)C)cc1)c1ccccc1` as the compound, how does the IC50 [4] read?
Its IC50 is 3 nM.

And the IC50 [5]?
The IC50 was 15 nM.
